Assay results reported in paper PMC10352325, “Nitro-benzylideneoxymorphone, a bifunctional mu and delta opioid receptor ligand with high mu opioid receptor efficacy” (Frontiers in Pharmacology, 2023).
Values joined by “and” are separate entries in the source; they are usually repeats but may differ in a detail not shown here. Identical values can stand only once.

Legend:
[1] = target: T1, DOPr (Homo sapiens, UniProt P41143); test: biochemical; details: for Emax: read-out: DOPr Emax ±SEM; for Selectivity DOPr/MOPr (EC50): ratio of [35S]GTPγS EC50
T1 construct: host or cells: CHO

[2] = system: rats; design: method as in Mada et al., 2020; details: ref Mada et al., 2020; cited from earlier work
[3] = system: C57BL/6 mice; test: Acute antinociception, 50°C warm water tail withdrawal (WWTW); format: in vivo, mouse; details: i.p.; for tail withdrawal latency, dose-response: 30 min before 50°C WWTW, C57BL/6 WT mice
Experimental: The 50°C warm water tail withdrawal (WWTW) antinociception assay is a standard preclinical pain assay, in which clinical analgesics increase the latency of tail removal from the warm water (Figure 2A).
To compare the total antinociceptive activity over time, we determined the area under the curve (AUC) of each ligand’s time-course.
Acute antinociception: 50°C warm-water tail withdrawal test in C57BL/6 mice. […] A maximum cutoff time of 20 s was implemented to prevent tissue damage. […] Drug-stimulated antinociception was expressed as a percentage of maximum possible effect (% MPE), where % MPE = (drug latency—baseline latency)/(cutoff latency—baseline latency) × 100. The acute antinociception results were analyzed with a one-way ANOVA followed by a post hoc Dunnett test comparing the drug(s) to vehicle.

[4] = target: T2, MOPr (Homo sapiens, UniProt P35372); test: [35S]GTPγS coupling, MOPr-CHO membranes; format: biochemical; details: for Emax: read-out: MOPr Emax ±SEM
T2 construct: host or cells: CHO

[5] = system: C57BL/6 mice; test: Chronic administration and antinociceptive tolerance, 50°C WWTW; format: in vivo, mouse; details: for day of first statistically significant antinociceptive tolerance: 10 mg/kg morphine, 32 mg/kg 12, i.p. 3x daily, WT mice
Experimental: As expected, the OPr antagonist and MOPr KO experiments indicate that antinociception and likely tolerance are MOPr-mediated effects.
Chronic administration and antinociceptive tolerance. To investigate antinociceptive tolerance, either C57BL/6 WT or MOR KO mice were administered (i.p.) drug 2-3 times a day as indicated (Figure 3). […]. Mice administered with 12 were injected with 0.5 mL 0.9% saline (s.c.) twice daily. Mice were injected again at 7 p.m. on day 1, but neither weighed nor tested for antinociception. […]. A two-way analysis of variance (ANOVA) was conducted for all tolerance assays. The significance threshold was p < 0.05, and a Tukey post hoc test followed all significant ANOVAs.

[6] = system: C57BL/6 mice; test: Toxicology on chronic administration (body weight, health); format: in vivo, mouse; details: for weight-loss on chronic administration: 32 mg/kg, C57BL/6 WT mice, tolerance experiment; for health on repeated administration (need for euthanasia): preliminary experiments, without saline supplement
[7] = target: T1, DOPr; test: biochemical; format: binding; details: for DOPr ΔG: Gibb's free energy converted from experimental Ki
Experimental: (§1) Cell lines, cell culture, and drug preparation. The hDOPr-CHO cell line was a generous gift from Dr. Larry Toll at the Torrey Pines Institute. The hMOPr- and hKOPr-CHO cell lines were generous gifts from John M. Streicher at the University of Arizona. All cells were cultured in 50:50 DMEM/F12 media with 10% heat-inactivated FBS and 1X penicillin/streptomycin supplement (all Gibco brand) in a 37°C humidified incubator with 5% CO2 atmosphere. Propagation cultures were further maintained with 500 μg/mL G418. Cultures were propagated for no more than 30 passages before discarding. […] Cell pellets were resuspended in 50 mM Tris HCl pH 7.4 and homogenized with a tissue grinder for 15–30 s on ice. Crude membranes were spun down at 15,000 g for 30 min. This process was repeated, and membrane preparations were stored at −80°C prior to use.
(§2) Briefly, these reactions were miniaturized to a 400 μL volume in 96 well plates and incubated at RT for 1 h at DOPr-, KOPr- and MOPr-CHO membrane preparations. The reactions were terminated by rapid filtration through 96-well format GF/B filter plates (PerkinElmer) and washed with cold 25 mM Tris HCl pH 7.4 buffer, dried, and added ECOLUME^TM scintillation cocktail from MP Biomedicals (Santa Cruz, CA, United States). The plates were read in a MicroBeta2 96-well format 6 detector scintillation counter (PerkinElmer). KI values were calculated using the IC50 of each competitor ligand and the previously established KD of ^3H-diprenorphine in each cell line using a competition binding model (GraphPad Prism 7.0).

[8] = target: T2, MOPr; test: biochemical; format: binding; details: for MOPr ΔG: Gibb's free energy converted from experimental Ki; for Ki: [3H]-diprenorphine, CHO membranes, n = 3, mean ± SEM
Experimental: as §1, §2

[9] = target: T3, KOPr (Homo sapiens, UniProt P41145); test: biochemical; format: binding; details: for Ki: [3H]-diprenorphine, CHO membranes, n = 3, mean ± SEM; for Selectivity KOPr/MOPr (Ki): ratio of binding Ki
T3 construct: host or cells: CHO
Experimental: as §1, §2

[10] = target: T1, DOPr; test: βarrestin2 recruitment (DiscoveRx PathHunter); format: cell-based
Source text: We further evaluated 12 in βarrestin2 recruitment assays (DiscoveRx) to evaluate DOPr agonist vs. antagonist efficacy in a higher efficacy requiring assay (Supplementary Figure S1). […] None of the compounds in this series stimulated KOPr-mediated G-protein recruitment. Retaining selectivity over KOPr is vital because KOPr agonists cause dysphoria and hallucinations ([Bruchas et al., 2007]; [Cunningham et al., 2011]).
βarrestin2 recruitment. βarrestin2 recruitment in CHO cells expressing […] was measured using the DiscoverRx PathHunter® assay kit (DiscoveRx, Fremont, CA) according to the manufacturer’s protocol. Assays were performed on at least three separate occasions in triplicate. Luminescence was read using a Synergy 2 plate reader (BioTek, Winooski, VT).

[11] = target: T3, KOPr; test: [35S]GTPγS coupling, KOPr-CHO membranes; format: biochemical; details: Emax% relative to U69,593, read-out: KOPr Emax ±SEM

T1 sequence (P41143 whole entry): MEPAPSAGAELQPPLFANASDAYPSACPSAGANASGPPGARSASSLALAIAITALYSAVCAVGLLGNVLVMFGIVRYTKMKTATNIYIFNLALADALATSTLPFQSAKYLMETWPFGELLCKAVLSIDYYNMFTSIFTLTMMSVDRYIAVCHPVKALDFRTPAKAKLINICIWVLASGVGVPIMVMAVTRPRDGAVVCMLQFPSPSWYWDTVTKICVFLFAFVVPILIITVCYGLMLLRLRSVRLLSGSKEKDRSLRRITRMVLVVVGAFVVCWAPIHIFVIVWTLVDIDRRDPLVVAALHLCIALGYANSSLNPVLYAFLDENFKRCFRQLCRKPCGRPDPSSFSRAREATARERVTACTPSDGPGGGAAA
T3 sequence (P41145 whole entry): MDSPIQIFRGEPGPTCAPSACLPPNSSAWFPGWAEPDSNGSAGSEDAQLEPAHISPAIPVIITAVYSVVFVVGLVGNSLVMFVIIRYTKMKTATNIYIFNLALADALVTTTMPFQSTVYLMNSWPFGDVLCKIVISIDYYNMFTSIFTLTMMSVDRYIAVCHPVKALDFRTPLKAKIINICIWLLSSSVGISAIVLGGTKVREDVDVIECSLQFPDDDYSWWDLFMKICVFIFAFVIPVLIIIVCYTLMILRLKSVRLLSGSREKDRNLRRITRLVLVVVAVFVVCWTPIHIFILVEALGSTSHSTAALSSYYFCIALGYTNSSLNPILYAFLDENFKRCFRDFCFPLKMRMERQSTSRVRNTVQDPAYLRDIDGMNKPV
T2 sequence (P35372 whole entry): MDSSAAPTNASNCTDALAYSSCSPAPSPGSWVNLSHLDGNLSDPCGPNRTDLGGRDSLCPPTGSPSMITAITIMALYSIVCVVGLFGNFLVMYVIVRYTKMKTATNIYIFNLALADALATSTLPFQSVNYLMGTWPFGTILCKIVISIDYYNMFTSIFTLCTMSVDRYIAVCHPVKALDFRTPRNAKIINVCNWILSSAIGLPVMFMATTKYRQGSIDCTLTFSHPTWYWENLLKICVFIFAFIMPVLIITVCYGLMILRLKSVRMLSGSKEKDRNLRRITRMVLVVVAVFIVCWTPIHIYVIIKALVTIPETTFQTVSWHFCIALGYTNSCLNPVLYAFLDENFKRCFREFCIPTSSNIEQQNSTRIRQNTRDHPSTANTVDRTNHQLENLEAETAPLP

Row | Compound | EC50 [1] [µM] | Emax [1] [%] | EC50 [4] [µM] | Emax [4] [%] | Ki [7] [µM] | DOPr ΔG [7] [kJ/mol] | MOPr ΔG [8] [kJ/mol] | Ki [8] | Ki [9] [nM] | Selectivity KOPr/MOPr (Ki) [9] | Selectivity DOPr/MOPr (EC50) [1] | also measured
1 | CN1CC[C@]23c4c5ccc(O)c4O[C@H]2C(=O)/C(=C/c2ccccc2)C[C@@]3(O)[C@H]1C5 [Compound 5, 7-E-benzylideneoxymorphone] | 0.026 ± 0.004 | 22 ± 4 | 0.063 ± 0.025 | 53 ± 9 | – | – | – | – | – | – | – | antinociception in the warm water tail withdrawal test [2]: < 20 % MPE; tail withdrawal latency, dose-response [3]: negligible antinociception; antinociception in the tolerance paradigm ([5]; 32 mg/kg, C57BL/6 WT mice): neither weight-loss nor antinociception; weight-loss on chronic administration [6]: neither weight-loss nor antinociception
2 | CN1CC[C@]23c4c5ccc(O)c4O[C@H]2C(=O)/C(=C/c2ccc(F)cc2)C[C@@]3(O)[C@H]1C5 [Compound 7] | – | < 15 | 0.095 ± 0.025 | 69 ± 16 | 0.055 ± 0.008 | -41.7 ± 0.33 | -44.22 ± 1.17 | 19.9 ± 11.7 nM | > 1000 | >50 | – | –
3 | CN1CC[C@]23c4c5ccc(O)c4O[C@H]2C(=O)/C(=C/c2ccc(Cl)cc2)C[C@@]3(O)[C@H]1C5 [Compound 8] | 0.145 ± 0.014 | 9 ± 3 | > 1 | – | 0.047 ± 0.016 | -42.09 ± 0.711 | -43.76 ± 0.13 | 23.8 ± 1.2 nM | > 1000 | >42 | <0.15 | –
4 | CN1CC[C@]23c4c5ccc(O)c4O[C@H]2C(=O)/C(=C/c2ccc(Br)cc2)C[C@@]3(O)[C@H]1C5 [Compound 9] | – | < 15 | > 1 | – | 0.121 ± 0.045 | -39.7 ± 0.795 | -42.51 ± 0.586 | 39.9 ± 10.5 nM | > 1000 | >25 | – | –
5 | COc1ccc(/C=C2\C[C@@]3(O)[C@H]4Cc5ccc(O)c6c5[C@@]3(CCN4C)[C@@H](O6)C2=O)cc1 [Compound 10] | 0.102 ± 0.008 | 30 ± 9 | 0.172 ± 0.055 | 80 ± 5 | 0.037 ± 0.009 | -42.68 ± 0.544 | -45.69 ± 0.502 | 11 ± 2.4 nM | > 1000 | >90 | 0.59 | –
6 | CN1CC[C@]23c4c5ccc(O)c4O[C@H]2C(=O)/C(=C/c2ccc(O)cc2)C[C@@]3(O)[C@H]1C5 [Compound 11] | 0.097 ± 0.04 | 21 ± 6 | 0.275 ± 0.1 | 85 ± 6 | 0.037 ± 0.007 | -42.68 ± 0.418 | -43.89 ± 0.586 | 22.7 ± 6 nM | > 1000 | >44 | 0.35 | –
7 | CN1CC[C@]23c4c5ccc(O)c4O[C@H]2C(=O)/C(=C/c2ccc([N+](=O)[O-])cc2)C[C@@]3(O)[C@H]1C5 [Compound 12, Nitro-benzylideneoxymorphone] | 0.02 ± 0.005 | 28 ± 4 | 0.0022 ± 0.0005 | 87 ± 7 | 0.01 ± 0.003 | -45.94 ± 0.669 | -51.97 ± 0.711 | 0.9 ± 0.3 nM | 180 ± 60 | 197 | 9.1 | Kb [10]: 0.032 µM; DOPr-mediated βarrestin2 recruitment, compound alone ([10]; agonist mode, any concentration): did not stimulate; area under the curve (AUC) of antinociceptive time-course ([3]; 32 mg/kg 12 or 10 mg/kg morphine, tested every 30 min): 9247 s*min; tail withdrawal latency, dose-response [3]: dose-dependent increase in tail withdrawal latency; antinociceptive potency relative to morphine ([3]; less potent than morphine, WWTW): approximately 3 fold; MOPr potency relative to that reported for oxymorphone ([4]; higher potency than oxymorphone (Olson et al., 2019)): approximately 10 fold; day of first statistically significant antinociceptive tolerance [5]: 2 days; antinociception after naloxone pretreatment ([5]; 32 mg/kg 12, 10 mg/kg naloxone pretreatment, C57BL/6 WT): blocked antinociception; antinociception in MOPr KO mice ([5]; 32 mg/kg i.p., C57BL/6 MOPr KO): did not show antinociception; weight-loss on chronic administration [6]: equal or greater weight-loss than those treated with morphine; health on repeated administration (need for euthanasia) [6]: became sick and had to be euthanized; Emax [11]: < 15%
8 | CN1CC[C@]23c4c5ccc(O)c4O[C@H]2C(=O)/C(=C/c2cccc4ccccc24)C[C@@]3(O)[C@H]1C5 [Compound 13] | 0.102 ± 0.037 | 36 ± 10 | > 1 | – | 0.056 ± 0.02 | -41.6 ± 0.753 | -40.9 ± 0.711 | 75 nM and 74.8 nM | > 1000 | >13 | – | –
9 | CN1CC[C@]23c4c5ccc(O)c4O[C@H]2C(=O)/C(=C/c2ccc4ccccc4c2)C[C@@]3(O)[C@H]1C5 [Compound 14] | – | < 15 | 0.012 ± 0.005 | 78 ± 11 | 0.036 ± 0.004 | -42.76 ± 0.25 | -51.04 ± 1.21 | 1.3 ± 0.8 nM | 390 ± 140 | 299 | – | Emax [11]: < 15%
10 | CN1CC[C@]23c4c5ccc(O)c4O[C@H]2[C@@H](O)C=C[C@H]3[C@H]1C5 [morphine, reference compound] | – | – | – | – | – | – | – | – | – | – | – | day of first statistically significant antinociceptive tolerance [5]: 3 days; health on repeated administration (need for euthanasia) [6]: did not require euthanasia
